Laboratory results as given in patent US11584744B2 (UNIVERSITY OF WASHINGTON, priority 2017, dated 2023).
Values after ≈ are worked out from the molar mass of the structure shown. Read-outs that look alike come from different tables or passages of the source.

Experiments:
[1] = test system: S. aureus MSSA (ATCC 29213); experiment: MIC susceptibility testing; assay type: cell-based, Staphylococcus aureus; details: S. aureus ATCC 29213; for MIC: Staphylococcus aureus, read-out: (F) S. aureus (ATCC 29213) MIC
Source text: Media and culture conditions. Mueller Hinton broth (MHB), cation adjusted Mueller Hinton broth (CA-MHB), and Brain Heart Infusion broth (BHI) were purchased from Becton Dickinson (Franklin Lakes, N.J.). Tryptic soy agar (TSA) plates, TSA with 5% sheep blood plates, and CA-MHB with 3% laked horse blood were purchased from Remel (San Diego, Calif.). MHB was used to assay all Staphylococcus aureus strains. CA-MHB was used for Staphylococcus epidermidis, Enterococcus faecalis, Enterococcus faecium, Escherichia coli, and Pseudomonas aeruginosa. CA-MHB supplemented with 3% laked horse blood was used for Streptococcus pneumoniae and Streptococcus pyogenes. Staphylococcus, Enterococcus, Escherichia, and Pseudomonas strains were cultured at 37° C. with ambient air. Streptococcus strains were cultured in 37° C. with 5% CO2. Separate conditions for radiolabeled precursor uptake assays are described below.
Susceptibility testing: Minimum inhibitory concentration (MIC) determinations were performed in triplicate in 96-well round bottom microtiter plates (Corning, Corning N.Y.) as described by the Clinical and Laboratory Standards Institute (CLSI). Serial two-fold dilutions of compounds were added to plates in 50 μL volumes. An additional 50 μL of media containing bacterial cells (1×10^6 CFUs/mL) was then added to each well. Maximum DMSO concentrations were 0.5%. Plates were incubated at 37° C. for at least 18 h before reading the susceptibility result by optical absorbance (OD600) using a BioTek ELx800. The lowest concentration causing ≥90% growth inhibition compared to the untreated control was recorded as the MIC (and also corresponded to the visual MIC). MICs were measured at least twice and the higher value (if different) was recorded herein.

MetRS (T. brucei) = target: T1, MetRS (T. brucei) (Trypanosoma brucei brucei, UniProt Q38C91); experiment: MetRS (T. brucei) enzyme inhibition; assay type: biochemical
T1 sequence (Q38C91 1-773): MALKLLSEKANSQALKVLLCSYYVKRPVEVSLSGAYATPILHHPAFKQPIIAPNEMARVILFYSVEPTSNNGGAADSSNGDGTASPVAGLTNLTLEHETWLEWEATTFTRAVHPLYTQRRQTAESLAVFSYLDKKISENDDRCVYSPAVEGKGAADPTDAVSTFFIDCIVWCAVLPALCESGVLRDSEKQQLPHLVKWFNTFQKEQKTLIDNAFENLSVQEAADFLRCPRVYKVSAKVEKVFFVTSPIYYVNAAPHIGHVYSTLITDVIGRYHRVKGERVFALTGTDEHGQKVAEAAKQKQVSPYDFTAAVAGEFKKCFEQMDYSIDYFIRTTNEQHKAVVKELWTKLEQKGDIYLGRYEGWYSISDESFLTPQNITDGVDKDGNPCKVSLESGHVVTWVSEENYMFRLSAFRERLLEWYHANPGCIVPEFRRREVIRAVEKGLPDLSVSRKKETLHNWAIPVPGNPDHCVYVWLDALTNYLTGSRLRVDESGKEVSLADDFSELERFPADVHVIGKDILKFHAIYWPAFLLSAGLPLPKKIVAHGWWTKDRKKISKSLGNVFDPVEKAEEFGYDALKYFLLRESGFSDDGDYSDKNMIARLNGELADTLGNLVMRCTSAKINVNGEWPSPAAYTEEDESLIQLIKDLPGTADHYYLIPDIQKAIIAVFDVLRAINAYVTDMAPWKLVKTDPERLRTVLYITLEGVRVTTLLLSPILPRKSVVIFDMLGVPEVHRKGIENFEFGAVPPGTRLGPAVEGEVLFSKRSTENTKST

MetRS (C. parvum) = MetRS (C. parvum) (Cryptosporidium parvum, UniProt Q5CVN0); experiment: MetRS (C. parvum) enzyme inhibition; assay type: biochemical; details: read-out: (C) MetRS (C. parvum) IC50
T. cruzi = T. cruzi growth inhibition; assay type: cell-based, Trypanosoma cruzi; details: read-out: (E) T. cruzi EC50
T. brucei = T. brucei growth inhibition; assay type: cell-based, Trypanosoma brucei; details: read-out: (D) T. brucei EC50
C. parvum = C. parvum growth inhibition; assay type: cell-based, Cryptosporidium parvum; details: read-out: (J) C. parvum EC50

MetRS (C. parvum), sequence (Q5CVN0 entry or part of it): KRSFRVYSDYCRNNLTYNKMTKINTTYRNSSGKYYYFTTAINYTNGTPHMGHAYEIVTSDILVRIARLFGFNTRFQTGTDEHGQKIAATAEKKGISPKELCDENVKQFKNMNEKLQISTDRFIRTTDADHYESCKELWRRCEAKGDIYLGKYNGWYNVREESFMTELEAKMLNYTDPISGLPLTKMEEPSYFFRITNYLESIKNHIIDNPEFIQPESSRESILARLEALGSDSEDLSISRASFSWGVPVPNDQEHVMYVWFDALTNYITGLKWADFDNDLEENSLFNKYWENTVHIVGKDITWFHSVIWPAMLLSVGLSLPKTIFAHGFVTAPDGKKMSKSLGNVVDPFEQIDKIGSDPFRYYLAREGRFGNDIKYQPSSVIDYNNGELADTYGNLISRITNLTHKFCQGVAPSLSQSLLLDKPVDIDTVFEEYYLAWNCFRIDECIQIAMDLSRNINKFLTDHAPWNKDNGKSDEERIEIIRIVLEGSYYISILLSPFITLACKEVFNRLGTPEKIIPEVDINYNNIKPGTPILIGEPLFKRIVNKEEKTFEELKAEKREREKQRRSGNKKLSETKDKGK

Compound | MIC [1] [µg/mL] | IC50 (MetRS (T. brucei)) [µM] | IC50 (MetRS (C. parvum)) [µM] | EC50 (T. cruzi; Trypanosoma cruzi) [µM] | (F) S. aureus (ATCC 29213) MIC [1] [µg/mL] | EC50 (T. brucei; Trypanosoma brucei) [µM] | EC50 (C. parvum; Cryptosporidium parvum) [µM] | EC50 (T. cruzi) [µM] | EC50 (C. parvum) [µM] | EC50 (T. brucei) [µM]
O=c1n(Cc2nc3ccc(F)nc3[nH]2)cc(Cc2ccc(Cl)cc2Cl)n1C1CCCC1 [Compound 2081, 3-cyclopentyl-4-[(2,4-dichlorophenyl)methyl]-1-({5-fluoro-1H-imidazo[4,5-b]pyridin-2-yl}methyl)-2,3-dihydro-1H-imidazol-2-one] | 1.33 (≈ 2.89 µM) | < 0.04 | < 0.04 | 0.438 |  |  |  |  |  | 
CC(C)(C)n1c(Cc2ccc(Cl)cc2Cl)cn(Cc2nc3ccc(F)nc3[nH]2)c1=O [Compound 2084, 3-tert-butyl-4-[(2,4-dichlorophenyl)methyl]-1-({5-fluoro-1H-imidazo[4,5-b]pyridin-2-yl}methyl)-2,3-dihydro-1H-imidazol-2-one] | 2.04 (≈ 4.55 µM) | < 0.04 | < 0.04 | 0.608 |  |  |  |  |  | 
CCn1c(Cc2ccc(Cl)cc2Cl)cn(Cc2nc3ccc(C)nc3[nH]2)c1=O [Compound 2092, 4-[(2,4-dichlorophenyl)methyl]-3-ethyl-1-({5-methyl-1H-imidazo[4,5-b]pyridin-2-yl}methyl)-2,3-dihydro-1H-imidazol-2-one] | > 2.5 | < 0.04 | 0.0475 | 0.502 |  |  |  |  |  | 
COc1ccc(-c2cnc(NC(C)=O)c3nc(Cc4nc5nc(Cl)ccc5[nH]4)cn23)c(Cl)c1 [Compound 2186, N-[2-({5-chloro-1H-imidazo[4,5-b]pyridin-2-yl}methyl)-5-(2-chloro-4-methoxyphenyl)imidazo[1,2-a]pyrazin-8-yl]acetamide] | 3.8 (≈ 7.88 µM) | 0.059 | 0.0492 | 0.36 | 3.21 | 0.025 |  |  |  | 
O=c1[nH]c(C(O)c2ccc(Cl)cc2Cl)cn1Cc1nc2nc(Cl)ccc2[nH]1 (stereo not drawn) [Compound 2202, 1-({5-chloro-1H-imidazo[4,5-b]pyridin-2-yl}methyl)-4-[(2,4-dichlorophenyl)(hydroxy)methyl]-2,3-dihydro-1H-imidazol-2-one] | > 10 | 0.055 | 0.213 | 2.71 | 13.2 | 0.0453 |  |  |  | 
CCn1c(Cc2ccc(Cl)cc2Cl)cn(Cc2nc3c(ccc(Cl)[n+]3[O-])[nH]2)c1=O [Compound 2235, 1-({5-chloro-4-oxo-1H-4λ^5-imidazo[4,5-b]pyridin-2-yl}methyl)-4-[(2,4-dichlorophenyl)methyl]-3-ethyl-2,3-dihydro-1H-imidazol-2-one] |  |  | > 1 |  |  | 1.05 | > 2 |  |  | 
COC(=O)c1c(Cl)ccc2[nH]c(Cc3cn4c(-c5ccc(OC)cc5Cl)cccc4n3)nc12 [Compound 2236, methyl 5-chlor0-2-{[5-(2-chloro-4-methoxyphenyl)imidazo[1,2-a]pyridin-2-yl]methyl}-1H-1,3-benzodiazole-4-carboxylate] |  |  | 0.335 |  |  | 1.66 | > 2 |  |  | 
COC(=O)c1c(Cl)ccc2[nH]c(Cn3cc(Cc4ccc(OC)cc4Cl)n(CC(C)(C)O)c3=O)nc12 [Compound 2237, methyl 5-chlor0-2-({4-[(2-chloro-4-methoxyphenyl)methyl]-3-(2-hydroxy-2-methylpropyl)-2-oxo-2,3-dihydro-1H-imidazol-1-yl}methyl)-1H-1,3-benzodiazole-4-carboxylate] |  |  | > 1 |  |  | 0.546 | > 2 |  |  | 
COc1ccc(Cc2cn(Cc3nc4ncc(Cl)c(C)c4[nH]3)c(=O)n2CC(C)(C)O)c(Cl)c1 [Compound 2238, 4-[(2-chloro-4-methoxyphenyl)methyl]-1-({6-chloro-7-methyl-1H-imidazo[4,5-b]pyridin-2-yl}methyl)-3-(2-hydroxy-2-methylpropyl)-2,3-dihydro-1H-imidazol-2-one] |  |  | 0.127 |  |  | 0.174 | > 2 |  |  | 
COc1ccc(-c2cccn3c(=S)n(Cc4nc5nc(Cl)ccc5[nH]4)cc23)c(Cl)c1 [Compound 2243, 2-({5-chloro-1H-imidazo[4,5-b]pyridin-2-yl}methyl)-8-(2-chloro-4-methoxyphenyl)-2H,3H-imidazo[1,5-a]pyridine-3-thione] |  |  |  | 0.0969 |  |  | 0.753 | 0.172 | 1.44 | 
COc1ccc(Cc2cn(Cc3nc4nc(Cl)ccc4[nH]3)c(=O)n2CC(F)F)c(Cl)c1 [Compound 2258, 1-({5-chloro-1H-imidazo[4,5-b]pyridin-2-yl}methyl)-4-[(2-chloro-4-methoxyphenyl)methyl]-3-(2,2-difluoroethyl)-2,3-dihydro-1H-imidazol-2-one] | 0.415 (≈ 0.886 µM) |  |  | 0.00539 |  | < 0.00091 | 0.188 | 0.00596 | 0.193 | 0.00135
COc1ccc(Cc2cn(Cc3nc4c(F)c(F)ccc4[nH]3)c(=O)n2CC(F)F)c(Cl)c1 [Compound 2261, 4-[(2-chloro-4-methoxyphenyl)methyl]-1-[(6,7-difluoro-1H-1,3-benzodiazol-2-yl)methyl]-3-(2,2-difluoroethyl)-2,3-dihydro-1H-imidazol-2-one] |  |  |  | 0.214 |  |  | 0.34 |  | 0.561 | 
CCn1c(Cc2ccc(Cl)cc2Cl)cn(Cc2nc3ccc(F)c(F)c3[nH]2)c1=O [Compound 2262, 4-[(2,4-dichlorophenyl)methyl]-1-[(6,7-difluoro-1H-1,3-benzodiazol-2-yl)methyl]-3-ethyl-2,3-dihydro-1H-imidazol-2-one] | 0.557 (≈ 1.27 µM) |  |  | 0.126 |  | 0.0189 | 1.5 |  |  | 0.0256
O=c1n(Cc2nc3c(F)c(F)ccc3[nH]2)cc(Cc2ccc(Cl)cc2Cl)n1CC(F)F [Compound 2263, 4-[(2,4-dichlorophenyl)methyl]-1-[(6,7-difluoro-1H-1,3-benzodiazol-2-yl)methyl]-3-(2,2-difluoroethyl)-2,3-dihydro-1H-imidazol-2-one] | 3.29 (≈ 6.95 µM) |  |  | 0.366 |  | 0.0644 | > 2 |  |  | 0.0691
CC(=O)N1CCC(Cn2c(Cc3ccc(Cl)cc3Cl)cn(Cc3nc4nc(F)ccc4[nH]3)c2=O)C(F)(F)C1 (stereo not drawn) [Compound 2265, 3-[(1-acetyl-3,3-difluoropiperidin-4-yl)methyl]-4-[(2,4-dichlorophenyl)methyl]-1-({5-fluoro-1H-imidazo[4,5-b]pyridin-2-yl}methyl)-2,3-dihydro-1H-imidazol-2-one] | 1.62 (≈ 2.86 µM) |  |  | 0.325 |  |  | 1.84 |  |  | 
OCCOc1cc(-c2cccc3nc(Cc4nc5nc(Cl)ccc5[nH]4)cn23)c(Cl)cc1Cl [Compound 2270, 2-{2,4-dichloro-5-[2-({5-chloro-1H-imidazo[4,5-b]pyridin-2-yl}methyl)imidazo[1,2-a]pyridin-5-yl]phenoxy}ethan-1-ol] |  |  |  | 0.706 |  | 0.0433 | > 2 |  |  | 
Clc1ccc2[nH]c(Cc3cn4c(-c5cc(OCCOC6CCCCO6)c(Cl)cc5Cl)cccc4n3)nc2n1 (stereo not drawn) [Compound 2271, 2-({5-chloro-1H-imidazo[4,5-b]pyridin-2-yl}methyl)-5-{2,4-dichloro-5-[2-(oxan-2-yloxy)ethoxy]phenyl}-imidazo[1,2-a]pyridine] |  |  |  | 0.494 |  | 0.0539 | > 2 |  |  | 
